US6500838B2, “Treatment of stereotypic, self-injurious and compulsive behaviors in man and animals using antagonists of NMDA receptors” (The Trustees of Tufts College, priority 1998, dated 2002)

What was measured:
crib-biting horses = test: Rate of crib-biting in horses after drug treatment; format: in vivo, horse
Procedure: Horses were admitted to the Large Animal Hospital of Tufts University School of Veterinary Medicine or were tested in their home barn. Cribbing straps and food were removed prior to testing. Control rates of crib-biting were observed and recorded for 5 minute intervals for one hour or more after an intravenous injection of 0.15 M saline. Test drugs were administered orally (by gavage) or by injection into the jugular vein. Solutions were made up with physiological saline and sterilized by filtration through a 0.2 micron filter (Millipore).
For the experimental data shown in FIG. 1, after establishment of a stable control rate of approximately 10 crib-bites per minute, 50 mg of D-methadone-HCl in 25 ml saline was injected i.v. In FIG. 1, the cumulative number of crib-bites was plotted against time as was the rate per 5 minute interval (Shuster, L. and N. H. Dodman, pp. 185-202, In Psychopharmacology of Animal Behavior Disorders, (N. H. Dodman and L. Shuster, eds.), Blackwell Scientific, Malden, Mass., 1998). […] The control rate then resumed during the next 80 minutes of observation. Horses were observed continuously during scoring for side effects that might be attributed to the treatment. These included changes in posture, disposition and motor activity. See also Table 1.

BALB/c male mice = test: Mouse model for pruritus: scratching after compound 48/80; format: in vivo
Procedure: The animals used were BALB/c male mice, weighing 27-33 g. One mouse was used per compound tested, except for two control mice receiving saline; two different mice were tested with (+) methadone, each with a different dose. Compound 48/80 (Kuraishi, Y. et al., European Journal of Pharmacology 275:229-233, 1995), 0.5 mg/ml in saline, was injected subcutaneously in a volume of 0.1 ml, between the shoulder blades of the mouse. Test compounds, dissolved in saline, were injected intraperitoneally in a volume of 0.1 ml per 10 g, either 10 minutes before or 30 minutes after injection of compound 48/80. The cumulative number of scratches with a hind leg were recorded at 10 minute intervals for 60 minutes following the injection of compound 48/80. See Tables 2 and 3, as well as FIGS. 4, 5A and 5B, showing the effectiveness of the compounds tested: naltrexone, dextromethorphan, (+) methadone, haloperidol, and (+) naloxone.

stall-walking horse = test: Stall-walking (turning) in a horse, circuits around the stall; format: in vivo; conditions: horse Full Circle (turning), 1.0 mg/kg, iv.
Procedure: Dextromethorphan-HBr, 1.0 mg/kg i.v., was injected after 60 minutes of control observations, to test its effect on a stall-walking horse. When measuring “stall walking” locomotor activity, each circuit around the stall was scored as one rotation. Cumulative rotations per 5 minute interval were plotted against time to establish the rate of circling. The results of the experiment are plotted in FIG. 2. See also Table 1.

[1] = horse CB, 0.2 mg/kg, iv., before treatment 8.8
[2] = 10 mg/kg i.p. 10 minutes before 48/80, 10 minutes after 48/80
[3] = 10 mg/kg i.p. 10 minutes before 48/80, 20 minutes after 48/80
[4] = 10 mg/kg i.p. 10 minutes before 48/80, 30 minutes after 48/80
[5] = 10 mg/kg i.p. 10 minutes before 48/80, 40 minutes after 48/80
[6] = 10 mg/kg i.p. 10 minutes before 48/80, 50 minutes after 48/80
[7] = 10 mg/kg i.p. 10 minutes before 48/80, 60 minutes after 48/80
[8] = 20 mg/kg i.p. 30 minutes after 48/80, time 10 minutes (before dosing)
[9] = 20 mg/kg i.p. 30 minutes after 48/80, time 20 minutes (before dosing)
[10] = 20 mg/kg i.p. 30 minutes after 48/80, time 30 minutes
[11] = 20 mg/kg i.p. 30 minutes after 48/80, time 40 minutes
[12] = 20 mg/kg i.p. 30 minutes after 48/80, time 50 minutes
[13] = 20 mg/kg i.p. 30 minutes after 48/80, time 60 minutes
[14] = horse CB, 0.2 mg/kg, iv., before treatment 8.2

## CCC(=O)C(C[C@H](C)N(C)C)(c1ccccc1)c1ccccc1 [(+) Methadone]
crib-biting horses; 50 mg in 25 ml saline i.v., control rate approximately 10 crib-bites per minute, resumed during the next 80 minutes
  rate of crib-bites per 5 minute interval: decreased between the second and the fifth 5-minute interval following injection
crib-biting horses; [1]
  Crib-biting Frequency number per minute After treatment: 2.6 number per minute
  Duration of Effect: 20 min
  lag before effect: (10 min lag)
crib-biting horses; horse CB, .01 mg/kg, iv.
  Duration of Effect: 10 min
crib-biting horses; horse CB, .01 mg/kg, iv., before treatment 8.2
  Crib-biting Frequency number per minute After treatment: 5.5 number per minute
BALB/c male mice; 5 mg/kg i.p. 30 minutes after 48/80, time 10 minutes (before dosing)
  Cumulative Scratches: 0
BALB/c male mice; 5 mg/kg i.p. 30 minutes after 48/80, time 20 minutes (before dosing)
  Cumulative Scratches: 56
BALB/c male mice; 5 mg/kg i.p. 30 minutes after 48/80, time 30 minutes
  Cumulative Scratches: 114
BALB/c male mice; 5 mg/kg i.p. 30 minutes after 48/80, time 40 minutes
  Cumulative Scratches: 145
BALB/c male mice; 5 mg/kg i.p. 30 minutes after 48/80, time 50 minutes
  Cumulative Scratches: 210
BALB/c male mice; 5 mg/kg i.p. 30 minutes after 48/80, time 60 minutes
  Cumulative Scratches: 267
BALB/c male mice; [2]
  Cumulative Scratches: 0
BALB/c male mice; [3]
  Cumulative Scratches: 0
BALB/c male mice; [4]
  Cumulative Scratches: 0
BALB/c male mice; [5]
  Cumulative Scratches: 0
BALB/c male mice; [6]
  Cumulative Scratches: 0
BALB/c male mice; [7]
  Cumulative Scratches: 0
BALB/c male mice; 10 mg/kg i.p. 30 minutes after 48/80, time 10 minutes (before dosing)
  Cumulative Scratches: 6
BALB/c male mice; 10 mg/kg i.p. 30 minutes after 48/80, time 20 minutes (before dosing)
  Cumulative Scratches: 38
BALB/c male mice; 10 mg/kg i.p. 30 minutes after 48/80, time 30 minutes
  Cumulative Scratches: 106
BALB/c male mice; 10 mg/kg i.p. 30 minutes after 48/80, time 40 minutes
  Cumulative Scratches: 107
BALB/c male mice; 10 mg/kg i.p. 30 minutes after 48/80, time 50 minutes
  Cumulative Scratches: 107
BALB/c male mice; 10 mg/kg i.p. 30 minutes after 48/80, time 60 minutes
  Cumulative Scratches: 107

## C=CCN1CC[C@]23c4c5ccc(O)c4O[C@H]2C(=O)CC[C@]3(O)[C@H]1C5 [(+) naloxone]
crib-biting horses; horse CB, 0.12 mg/kg, iv.
  Duration of Effect: 60 min
  lag before effect: (30 min lag)
crib-biting horses; horse CB, 0.12 mg/kg, iv., before treatment 10
  Crib-biting Frequency number per minute After treatment: 6.6 number per minute
crib-biting horses; horse CB, 0.18 mg/kg, i.v.
  Duration of Effect: 60 min
  lag before effect: (no lag)
crib-biting horses; horse CB, 0.18 mg/kg, i.v., before treatment 9.2
  Crib-biting Frequency number per minute After treatment: 0.8 number per minute
BALB/c male mice; [8]
  Cumulative Scratches: 4
BALB/c male mice; [9]
  Cumulative Scratches: 48
BALB/c male mice; [10]
  Cumulative Scratches: 105
BALB/c male mice; [11]
  Cumulative Scratches: 112
BALB/c male mice; [12]
  Cumulative Scratches: 146
BALB/c male mice; [13]
  Cumulative Scratches: 175

## COc1ccc2c(c1)[C@]13CCCC[C@@H]1[C@H](C2)N(C)CC3 [Dextromethorphan]
crib-biting horses; horse CB, 1.0 mg/kg, i.v.
  Duration of Effect: 35 min
  lag before effect: (no lag)
crib-biting horses; horse CB, 1.0 mg/kg, i.v., before treatment 7.6
  Crib-biting Frequency number per minute After treatment: 0.3 number per minute
crib-biting horses; horse CB, 1.0 mg/kg, p.o.
  Duration of Effect: 90 min
  lag before effect: (35 min lag)
crib-biting horses; horse CB, 1.0 mg/kg, p.o., before treatment 8
  Crib-biting Frequency number per minute After treatment: 1.7 number per minute
crib-biting horses; horse Frito, 3.2 mg/kg p.o.
  Duration of Effect: 100 min
  lag before effect: (30 min lag)
crib-biting horses; horse Frito, 3.2 mg/kg p.o., before treatment 3.5
  Crib-biting Frequency number per minute After treatment: 1.8 number per minute
stall-walking horse
  Duration of Effect: 45 min
  lag before effect: (no lag)
stall-walking horse; before treatment 3.5 turns per min.
  turns per min. After treatment: .3 turns turns per min.
BALB/c male mice; [2]
  Cumulative Scratches: 1
BALB/c male mice; [3]
  Cumulative Scratches: 57
BALB/c male mice; [4]
  Cumulative Scratches: 105
BALB/c male mice; [5]
  Cumulative Scratches: 157
BALB/c male mice; [6]
  Cumulative Scratches: 182
BALB/c male mice; [7]
  Cumulative Scratches: 192
BALB/c male mice; [8]
  Cumulative Scratches: 47
BALB/c male mice; [9]
  Cumulative Scratches: 125
BALB/c male mice; [10]
  Cumulative Scratches: 158
BALB/c male mice; [11]
  Cumulative Scratches: 171
BALB/c male mice; [12]
  Cumulative Scratches: 178
BALB/c male mice; [13]
  Cumulative Scratches: 185

## O=C(CCCN1CCC(O)(c2ccc(Cl)cc2)CC1)c1ccc(F)cc1 [Haloperidol]
BALB/c male mice; 2.0 mg/kg i.p. 30 minutes after 48/80, time 10 minutes (before dosing)
  Cumulative Scratches: 2
BALB/c male mice; 2.0 mg/kg i.p. 30 minutes after 48/80, time 20 minutes (before dosing)
  Cumulative Scratches: 87
BALB/c male mice; 2.0 mg/kg i.p. 30 minutes after 48/80, time 30 minutes
  Cumulative Scratches: 108
BALB/c male mice; 2.0 mg/kg i.p. 30 minutes after 48/80, time 40 minutes
  Cumulative Scratches: 137
BALB/c male mice; 2.0 mg/kg i.p. 30 minutes after 48/80, time 50 minutes
  Cumulative Scratches: 137
BALB/c male mice; 2.0 mg/kg i.p. 30 minutes after 48/80, time 60 minutes
  Cumulative Scratches: 142

## O=C1CC[C@@]2(O)[C@H]3Cc4ccc(O)c5c4[C@@]2(CCN3CC2CC2)[C@H]1O5 [Naltrexone]
BALB/c male mice; [2]
  Cumulative Scratches: 0
BALB/c male mice; [3]
  Cumulative Scratches: 0
BALB/c male mice; [4]
  Cumulative Scratches: 0
BALB/c male mice; [5]
  Cumulative Scratches: 1
BALB/c male mice; [6]
  Cumulative Scratches: 61
BALB/c male mice; [7]
  Cumulative Scratches: 73

## CNC1(c2ccccc2Cl)CCCCC1=O (stereo not drawn) [ketamine]
crib-biting horses; [14]
  Crib-biting Frequency number per minute After treatment: 1.3 number per minute
  Duration of Effect: 50 min
  lag before effect: (no lag)

## (−) naloxone
crib-biting horses; horse CB, .04 mg/kg, i.v.
  Duration of Effect: 65 min
  lag before effect: (10 min lag)
crib-biting horses; horse CB, .04 mg/kg, i.v., before treatment 12
  Crib-biting Frequency number per minute After treatment: 0.1 number per minute
